Data published in patent US12637499B2, “Adrenomedullin analog, method for producing the same, and pharmaceutical use thereof” (priority 2020, dated 2026).
Where a SMILES comes first, the peptide text is derived from it. Bridges are numbered along the chain shown (N, C = ends).

Legend:
[1] = in vitro; conditions: for stability in reaction mixture with human serum: Experiment VIII, 10^−7 M, 37° C., 4 hours after the beginning of reaction
Protocol: The stabilities of the AM analog peptides in serum were evaluated with the same procedure as in Experiment I except the following procedure. […] A reaction mixture containing 4 μL of phosphate buffer, 20 μL of human serum (Sigma-Aldrich Co. LLC, USA), and 14 μL of water was prepared. To the reaction mixture, 2 μL of AM or an AM analog peptide (2×10^−6 M, final concentration: 10^−7 M) was added, and reaction was initiated at 37° C. The reaction was terminated by addition of 160 μL of ELISA buffer to the reaction mixture 0, 1, or 4 hours after the beginning of reaction. […] In the figure, the abscissa represents reaction time (hr), and the ordinate represents concentration in serum of AM or an AM analog (%) represented as relative values to concentration of AM or an AM analog at the beginning of reaction (i.e., 0 hours after the beginning of reaction).

[2] = in vivo; conditions: for detection in rat plasma after subcutaneous administration: 50 nmol/kg subcutaneous, Experiment X; for Cmax: male, Wistar, rat, in vivo, sc, 50 nmol/kg
Protocol: Seven-week-old male Wistar rats were prepared, and grown with normal feeds. To determine plasma AM concentrations, 50 nmol/kg of AM or an AM analog was subcutaneously administered. A peripheral blood sample was collected from the tail vein into a Kantan tube® (containing heparin Na, Eiken Chemical Co., Ltd., Tochigi, Japan) at predetermined times (0, 15, 30, 60, and 120 minutes after administration). The tube was centrifuged at 2,000×g. Plasma was collected from the tube, and transferred into a test tube (containing 21 μg of aprotinin and 0.3 mg of EDTA-2Na) and stored. […] In the figure, the abscissa represents elapsed time after subcutaneous administration (hr), and the ordinate represents concentration in plasma of AM or an AM analog (pM). In addition, maximum concentrations in blood (Cmax) of AM or the AM analogs in rat plasma after subcutaneous administration were calculated.

[3] = target: T1, AM type 1 receptor (AMI receptor) (Homo sapiens, UniProt O60895+Q16602); assay: Intracellular cAMP production in HEK293 cells stably expressing AM type 1 receptor (Experiments V and IX); assay type: cell-based; conditions: for intracellular cAMP concentration-increasing activity: Experiment IX, addition at 10^−9 M or 10^−8 M, HEK293 cells
T1 construct: expressed in transfected cells; medium contains hygromycin B and Geneticin
Text: The adrenomedullin activity exerted by AM, shown above with examples, will be exerted via increased concentration of intracellular cAMP in normal cases. Thus, the increased concentration of intracellular cAMP can be considered as an index of the adrenomedullin activity of the compound according to the aspect. In each aspect of the invention, the effect of increasing concentration of intracellular cAMP can be evaluated, for example, by adding a target compound to a cultured cell line (HEK293 cell line) caused to stably express an AM type 1 receptor (AMI receptor) and measuring the amount of intracellular cAMP produced.
The physiological effect of AM is known to be exerted via increase in the concentration of intracellular cAMP (see Kitamura K et al., Biochem Biophys Res Commun, 30 Apr. 1993, Volume 192, Issue 2, pp. 553-560). Accordingly, each AM analog was added to a cultured cell line (HEK293 cell line) caused to stably express an AM type 1 receptor (AMI receptor), and the amount of intracellular cAMP produced was measured. HEK293 cells were cultured in Dulbecco's modified Eagle's medium (with 10% fetal bovine serum, 100 U/ml penicillin G, […] streptomycin, 0.25 mg/ml amphotericin B, […] hygromycin B, and […] Geneticin) in a fibronectin-coated 24-well plate (Thermo Fisher Scientific) (under 37° C., humidified, 5% CO2 conditions). After culturing for 3 days, 90%-confluent cells with accumulation of intracellular cAMP stimulated were subjected to experiment. The medium was exchanged with Hanks's balanced salt solution containing 20 mM 4-(2-hydroxyethyl)-1-piperazineethanesulfonic acid and 0.1% bovine serum albumin, AM or an AM analog was added to the cells in the presence of 0.5 mM isobutylmethylxanthine (IBMX), and the cells were incubated at 37° C. for 15 minutes. The reaction was terminated by addition of cell lysis buffer. Then, the amount of intracellular cAMP produced in the HEK293 cells of each well was measured using an ELISA kit for cAMP measurement (GE Healthcare Japan Corp., #RPN2251). […] In the figure, the abscissa represents logarithms of concentration of AM or an AM analog added (M), and the ordinate represents amounts of intracellular cAMP produced in HEK293 cells stably expressing an AMI receptor (fmol/well).
In the figure, the abscissa represents logarithms of concentration of AM or an AM analog added (M), and the ordinate represents amounts of intracellular cAMP produced in HEK293 cells stably expressing an AMI receptor (fmol/ml).

T1 sequence (Q16602 23-461): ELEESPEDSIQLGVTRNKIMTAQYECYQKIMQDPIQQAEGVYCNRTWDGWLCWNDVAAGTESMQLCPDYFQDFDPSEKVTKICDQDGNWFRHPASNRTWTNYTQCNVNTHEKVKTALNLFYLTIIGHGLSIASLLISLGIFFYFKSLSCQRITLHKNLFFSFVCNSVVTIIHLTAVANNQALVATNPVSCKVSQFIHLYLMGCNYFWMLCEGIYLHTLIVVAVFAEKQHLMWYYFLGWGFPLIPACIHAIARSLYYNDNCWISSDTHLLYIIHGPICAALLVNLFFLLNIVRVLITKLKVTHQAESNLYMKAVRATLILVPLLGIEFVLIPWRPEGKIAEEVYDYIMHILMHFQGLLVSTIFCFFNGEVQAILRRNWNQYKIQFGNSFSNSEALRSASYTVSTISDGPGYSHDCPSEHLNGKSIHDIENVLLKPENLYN
T1 sequence (O60895 43-175): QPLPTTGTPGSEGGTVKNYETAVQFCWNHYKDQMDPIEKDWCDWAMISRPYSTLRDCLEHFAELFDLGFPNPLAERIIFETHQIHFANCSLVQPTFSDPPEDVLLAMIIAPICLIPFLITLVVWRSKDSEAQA

Row | SMILES | stability in reaction mixture with human serum [1] | detection in rat plasma after subcutaneous administration [2] | Cmax [2] [nM] | EC50 [3] [nM] | intracellular cAMP concentration-increasing activity [3] | remaining at 4 h ([1]; human, serum) [%]
1 | CC[C@H](C)[C@H](NC(=O)[C@H](CCC(N)=O)NC(=O)[C@H](Cc1c[nH]cn1)NC(=O)[C@H](C)NC(=O)[C@H](CC(C)C)NC(=O)[C@H](CCCCN)NC(=O)[C@H](CCC(N)=O)NC(=O)[C@@H](NC(=O)[C@@H](NC(=O)[C@@H]1CSSC[C@H](NC(=O)CNC(=O)[C@H](Cc2ccccc2)NC(=O)[C@@H](N)CO)C(=O)N[C@@H](CCCNC(=N)N)C(=O)N[C@@H](Cc2ccccc2)C(=O)NCC(=O)N[C@@H]([C@@H](C)O)C(=O)N1)[C@@H](C)O)C(C)C)C(=O)N[C@@H](Cc1ccc(O)cc1)C(=O)N[C@@H](CCC(N)=O)C(=O)N[C@@H](Cc1ccccc1)C(=O)N[C@H](C(=O)N[C@@H](CC(=O)O)C(=O)N[C@@H](CCCCN)C(=O)N[C@@H](CC(=O)O)C(=O)N[C@@H](CCCCN)C(=O)N[C@@H](CC(=O)O)C(=O)N[C@@H](CC(N)=O)C(=O)N[C@H](C(=O)N[C@@H](C)C(=O)N1CCC[C@H]1C(=O)N[C@@H](CC(=O)O)C(=O)N[C@@H](CO)C(=O)N[C@@H](CCCCN)C(=O)N[C@H](C(=O)N[C@@H](CO)C(=O)N1CCC[C@H]1C(=O)N[C@@H](CCC(N)=O)C(=O)NCC(=O)N[C@@H](Cc1ccc(O)cc1)C(N)=O)[C@@H](C)CC)C(C)C)[C@@H](C)O [[Asp-44]hAM(13-52), SFGCRFGTCTVQKLAHQIYQFTDKDKDNVAPDSKISPQGY-CONH2] (H-SFGCRFGTCTVQKLAHQIYQFTDKDKDNVAPDSKISPQGY-NH2; disulfide 4-9) | stable |  |  |  |  | 
2 | CC[C@H](C)[C@H](NC(=O)[C@H](CCC(N)=O)NC(=O)[C@H](Cc1c[nH]cn1)NC(=O)[C@H](C)NC(=O)[C@H](CC(C)C)NC(=O)[C@H](CCCCN)NC(=O)[C@H](CCC(N)=O)NC(=O)[C@@H](NC(=O)[C@@H](NC(=O)[C@@H]1CSSC[C@H](NC(=O)CNC(=O)[C@H](Cc2ccccc2)NC(=O)[C@@H](N)CO)C(=O)N[C@@H](CCCNC(=N)N)C(=O)N[C@@H](Cc2ccccc2)C(=O)NCC(=O)N[C@@H]([C@@H](C)O)C(=O)N1)[C@@H](C)O)C(C)C)C(=O)N[C@@H](Cc1ccc(O)cc1)C(=O)N[C@@H](CCC(N)=O)C(=O)N[C@@H](Cc1ccccc1)C(=O)N[C@H](C(=O)N[C@@H](CC(=O)O)C(=O)N[C@@H](CCCCN)C(=O)N[C@@H](CC(=O)O)C(=O)N[C@@H](CCCCN)C(=O)N[C@@H](CC(=O)O)C(=O)N[C@@H](CC(N)=O)C(=O)N[C@H](C(=O)N[C@@H](C)C(=O)N1CCC[C@H]1C(=O)NCC(=O)N[C@@H](CO)C(=O)N[C@@H](CCCCN)C(=O)N[C@H](C(=O)N[C@@H](CO)C(=O)N1CCC[C@H]1C(=O)N[C@@H](CCC(N)=O)C(=O)NCC(=O)N[C@@H](Cc1ccc(O)cc1)C(N)=O)[C@@H](C)CC)C(C)C)[C@@H](C)O [[Gly-44]hAM(13-52), SFGCRFGTCTVQKLAHQIYQFTDKDKDNVAPGSKISPQGY-CONH2] (H-SFGCRFGTCTVQKLAHQIYQFTDKDKDNVAPGSKISPQGY-NH2; disulfide 4-9) | stable | detected in rat plasma 15 minutes after administration | 0.76 | 11 | approximately equivalent to that of hAM(1-52) or hAM(13-52) | 
3 | CC[C@H](C)[C@H](NC(=O)[C@H](CCC(N)=O)NC(=O)[C@H](Cc1c[nH]cn1)NC(=O)[C@H](C)NC(=O)[C@H](CC(C)C)NC(=O)[C@H](CCCCN)NC(=O)[C@H](CCC(N)=O)NC(=O)[C@@H](NC(=O)[C@@H](NC(=O)[C@@H]1CSSC[C@H](NC(=O)CNC(=O)[C@H](Cc2ccccc2)NC(=O)[C@@H](N)CO)C(=O)N[C@@H](CCCNC(=N)N)C(=O)N[C@@H](Cc2ccccc2)C(=O)NCC(=O)N[C@@H]([C@@H](C)O)C(=O)N1)[C@@H](C)O)C(C)C)C(=O)N[C@@H](Cc1ccc(O)cc1)C(=O)N[C@@H](CCC(N)=O)C(=O)N[C@@H](Cc1ccccc1)C(=O)N[C@H](C(=O)N[C@@H](CC(=O)O)C(=O)N[C@@H](CCCCN)C(=O)N[C@@H](CC(=O)O)C(=O)N[C@@H](CCCCN)C(=O)N[C@@H](CC(=O)O)C(=O)N[C@@H](CC(N)=O)C(=O)N[C@H](C(=O)N[C@@H](C)C(=O)N1CCC[C@H]1C(=O)N[C@@H](Cc1ccccc1)C(=O)N[C@@H](CO)C(=O)N[C@@H](CCCCN)C(=O)N[C@H](C(=O)N[C@@H](CO)C(=O)N1CCC[C@H]1C(=O)N[C@@H](CCC(N)=O)C(=O)NCC(=O)N[C@@H](Cc1ccc(O)cc1)C(N)=O)[C@@H](C)CC)C(C)C)[C@@H](C)O [[Phe-44]hAM(13-52), SFGCRFGTCTVQKLAHQIYQFTDKDKDNVAPFSKISPQGY-CONH2] (H-SFGCRFGTCTVQKLAHQIYQFTDKDKDNVAPFSKISPQGY-NH2; disulfide 4-9) | stable | detected in rat plasma 15 minutes after administration | 0.323 | 5.13 | approximately equivalent to that of hAM(1-52) or hAM(13-52) | 
4 | CC[C@H](C)[C@H](NC(=O)[C@H](CCC(N)=O)NC(=O)[C@H](Cc1c[nH]cn1)NC(=O)[C@H](C)NC(=O)[C@H](CC(C)C)NC(=O)[C@H](CCCCN)NC(=O)[C@H](CCC(N)=O)NC(=O)[C@@H](NC(=O)[C@@H](NC(=O)[C@@H]1CSSC[C@H](NC(=O)CNC(=O)[C@H](Cc2ccccc2)NC(=O)[C@@H](N)CO)C(=O)N[C@@H](CCCNC(=N)N)C(=O)N[C@@H](Cc2ccccc2)C(=O)NCC(=O)N[C@@H]([C@@H](C)O)C(=O)N1)[C@@H](C)O)C(C)C)C(=O)N[C@@H](Cc1ccc(O)cc1)C(=O)N[C@@H](CCC(N)=O)C(=O)N[C@@H](Cc1ccccc1)C(=O)N[C@H](C(=O)N[C@@H](CC(=O)O)C(=O)N[C@@H](CCCCN)C(=O)N[C@@H](CC(=O)O)C(=O)N[C@@H](CCCCN)C(=O)N[C@@H](CC(=O)O)C(=O)N[C@@H](CC(N)=O)C(=O)N[C@H](C(=O)N[C@@H](C)C(=O)N1CCC[C@H]1C(=O)N[C@@H](CCCNC(=N)N)C(=O)N1CCC[C@H]1C(=O)N[C@@H](CCCCN)C(=O)N[C@H](C(=O)N[C@@H](CO)C(=O)N1CCC[C@H]1C(=O)N[C@@H](CCC(N)=O)C(=O)NCC(=O)N[C@@H](Cc1ccc(O)cc1)C(N)=O)[C@@H](C)CC)C(C)C)[C@@H](C)O [[Pro-45]hAM(13-52), SFGCRFGTCTVQKLAHQIYQFTDKDKDNVAPRPKISPQGY-CONH2] (H-SFGCRFGTCTVQKLAHQIYQFTDKDKDNVAPRPKISPQGY-NH2; disulfide 4-9) |  |  |  |  |  | ~60
